From patent US20080039376A1, “Use of Cyclic Anabaenopeptin-type Peptides for the Treatment of a Condition Wherein Inhibition of Carboxypeptidase U is Beneficial, Novel Anabaenopeptin Derivatives and Intermediates Thereof” (A[…], priority 2003, published 2008)
*1 amine or outer side, *2 acyl side, *3 side chain or, on linkers, in order; H or OH if unused. Where a SMILES comes first, the peptide text is derived from it. Bridges are numbered along the chain shown (N, C = ends). [ ]: non-standard residue; d: D form. ξ: configuration not given here. X2 = CN([C@@H](Cc1c[nH]c2cc(Cl)c(O)cc12)C(=O)[*:2])[*:1]; X1 = O=C([C@H](Cc1c[nH]c2cc(Cl)c(O)cc12)N[*:1])[*:2]; Ile(3ξ) = CCC(C)[C@H](N)C(=O)O; NMeL = CN[C@@H](CC(C)C)C(=O)O; CO = O=C([*:1])[*:2]

Target: T1, carboxypeptidase U (Homo sapiens, UniProt Q96IY4)
T1 sequence (Q96IY4 115-423): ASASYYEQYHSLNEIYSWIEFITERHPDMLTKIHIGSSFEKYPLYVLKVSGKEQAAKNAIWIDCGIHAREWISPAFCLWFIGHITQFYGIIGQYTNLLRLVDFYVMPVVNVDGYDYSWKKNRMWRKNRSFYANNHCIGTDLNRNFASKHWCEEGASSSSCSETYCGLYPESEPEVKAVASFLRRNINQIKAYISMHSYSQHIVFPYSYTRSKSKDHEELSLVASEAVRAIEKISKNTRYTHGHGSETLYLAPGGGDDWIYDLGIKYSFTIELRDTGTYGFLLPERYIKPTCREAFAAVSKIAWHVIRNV
Test: carboxypeptidase U inhibition assay (Hendriks et al., Clin. Chem. 1985), substrate concentration 4 mM
Assay type: biochemical
Conditions: substrate concentration of 4 mM
Experimental: The inhibiting effect of the compounds of the present invention was estimated using the assay described in: Dirk Hendriks, Simon Scharpé and Marc van Sande, Clinical Chemistry, 31, 1936-1939 (1985); and Wei Wang, Dirk F. Hendriks, Simon S. Scharpé, The Journal of Biological Chemistry, 269, 15937-15944 (1994), using a substrate concentration of 4 mM.
The activities of certain Examples in the assay described in: Dirk Hendriks, Simon Sharpé and Marc van Sande, Clinical Chemistry, 31, 1936-1939 (1985), using a substrate concentration of 4 mM, are presented in Table I below.

## CC(C)C[C@@H]1NC(=O)[C@H](C)NC(=O)[C@H](NC(=O)N[C@@H](CCCNC(=N)N)C(=O)O)CCCCNC(=O)[C@H](Cc2c[nH]c3cc(Cl)c(O)cc23)NC(=O)[C@H](CC(C)C)N(C)C1=O [Compound 2] ({Arg-CO}-[dK]AL[NMeL][X1]; lactam 1-C)
  IC50: 100 nM

## CCC(C)[C@H](NC(=O)N[C@@H]1CCCCNC(=O)[C@H](Cc2ccccc2)NC(=O)[C@H](Cc2c[nH]c3cc(Cl)c(O)cc23)N(C)C(=O)[C@H](CC(C)C)NC(=O)[C@H](C(C)CC)NC1=O)C(=O)O (some centres unmarked) [Compound 8] ({Ile(3ξ)-CO}-[dK][Ile(3ξ)]L[X2]F; lactam 1-C)
  IC50: 2500 nM
